Like-named read-outs stand apart in the source and are kept apart here.
Legend:
[1] = Absorption and fluorescence emission spectra in DMF; format: physicochemical; settings: in DMF
Description: (§1) An absorption spectrum of 2.475 mL of solvent (water, DMF, or PBS) was taken (i.e., absorption spectrum of baseline); then, 25 μL of stock solution was added to reach the final concentration of 1 μM in the cuvette, and the absorption and emission spectra were taken. Baseline of the solvent was subtracted from the obtained absorption spectrum to get the final absorption spectrum of the sample.

[2] = Fluorescence quantum yield, comparative method; format: physicochemical; settings: in DMF; ZnPc as reference
Outline: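 ΦF determined by the comparative method against ZnPc (ΦF 0.32 in THF), using integrated emission area, absorbance at the excitation wavelength and solvent refractive index. Q-band absorbance kept below 0.05; estimated error ± 15%.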

[3] = Quantum yield of singlet oxygen production, comparative method with DPBF scavenger; format: physicochemical; settings: in DMF, ZnPc as reference
Outline: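 Dye added from 100 μM DMF stock (or DMF/water, water); irradiated under stirring with xenon lamp through water filter and OG530 cut-off (>523 nm). DPBF decay followed at 415 nm; ΦΔ from ln(A0/At) slopes versus reference, normalised to absorbed light summed over 523–850 nm; triplicate means, ±10% error.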

[4] = Log P, partition between n-octanol and PBS; format: physicochemical; settings: partition coefficient between 1-octanol and PBS
Outline: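 Sample from 100 μM stock added to equal volumes of n-octanol and PBS, vortexed 5 min at rt, centrifuged. Each layer diluted into DMF and emission spectra recorded; log P taken as log of octanol/PBS integrated fluorescence ratio, mean of triplicates.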

[5] = Aggregation / monomerization in aqueous media (spectra in water and PBS); format: physicochemical; settings: 1 μM
Description: as §1

[6] = test system: MCF-7 (human breast adenocarcinoma); test: Photodynamic activity (phototoxicity, neutral red uptake) on MCF-7; format: cell-based; settings: 12 h incubation, Xe-lamp 15 min, λ > 570 nm, 11.2 J/cm^2; mean ± SD; t.w. = this work
[7] = test system: HeLa (human cervical carcinoma); settings: ref number not given, cited from earlier work
[8] = test system: SK-MEL-28 (human skin melanoma); design: method as in number not printed in Table 2; settings: 12 h incubation, Xe-lamp 15 min, λ > 570 nm, 11.2 J/cm^2; mean ± SD; determined previously under the same conditions at the same workplace and published; ref number not given; cited from earlier work
[9] = Fluorescence lifetime in DMF; format: physicochemical
Excerpt: 1 Photophysical Data of Investigated Derivatives in DMF ^a | column: τF1/ns; τF2/ns

[10] = test system: MCF-7 (human breast adenocarcinoma); design: method as in number not printed in Table 2; settings: 12 h incubation, Xe-lamp 15 min, λ > 570 nm, 11.2 J/cm^2; mean ± SD; determined previously under the same conditions at the same workplace and published; ref number not given; cited from earlier work
[11] = determined for nonionized analogues containing free carboxylic acid; ref number not given (footnote b); cited from earlier work
[12] = determined for nonionized analogues containing free carboxylic acid; ref number not given (footnote b); cited from earlier work; remark: listed apart in the source
[13] = molecular target: bovine serum albumin (BSA) (Bos taurus, UniProt P02769); test: Interaction with bovine serum albumin (absorption and emission spectra in PBS); format: binding; settings: 1 μM Pc in PBS, BSA 17.5, 35 and 100 μM
Sequence of bovine serum albumin (BSA) (P02769 25-607): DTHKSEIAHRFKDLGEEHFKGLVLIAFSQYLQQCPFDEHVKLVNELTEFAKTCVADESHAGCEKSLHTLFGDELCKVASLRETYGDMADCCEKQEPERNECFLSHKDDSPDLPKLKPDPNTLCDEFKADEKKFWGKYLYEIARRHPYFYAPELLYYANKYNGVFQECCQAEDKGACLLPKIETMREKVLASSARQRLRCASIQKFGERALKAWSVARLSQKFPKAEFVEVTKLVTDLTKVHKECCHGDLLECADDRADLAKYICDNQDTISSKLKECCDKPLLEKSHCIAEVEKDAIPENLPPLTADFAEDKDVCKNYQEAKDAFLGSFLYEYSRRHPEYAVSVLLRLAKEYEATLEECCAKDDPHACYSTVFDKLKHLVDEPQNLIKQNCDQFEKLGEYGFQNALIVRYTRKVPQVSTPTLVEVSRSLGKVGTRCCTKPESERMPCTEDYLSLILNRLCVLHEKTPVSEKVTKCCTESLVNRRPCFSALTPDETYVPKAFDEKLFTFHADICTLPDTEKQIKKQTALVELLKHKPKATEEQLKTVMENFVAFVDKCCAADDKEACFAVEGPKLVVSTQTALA

[14] = 12 h incubation, Xe-lamp 15 min, λ > 570 nm, 11.2 J/cm^2, mean ± SD, determined previously under the same conditions at the same workplace and published, read-out: EC50 (nM) HeLa

SMILES	ε, extinction coefficient [1]	λA, absorption maximum in the Q-band [1] [nm]	λF, fluorescence emission maximum [1] [nm]	ΦF, fluorescence quantum yield [2]	ΦΔ, quantum yield of singlet oxygen production [3]	Log P [4]	aggregation / monomeric state [5]	EC50 [6] [nM]	EC50 [7, 14] [nM]	EC50 [8] [nM]	τF1, fluorescence lifetime (relative amplitude in brackets) [9] [ns]	EC50 [10] [nM]	ΦF, fluorescence quantum yield of nonionized analogue [11]	ΦΔ, quantum yield of singlet oxygen production of nonionized analogue [12]	Interaction with BSA: disaggregation/monomerization and changes in absorption and fluorescence emission spectra [13]	quenching of excited states upon BSA addition (decrease in Q-band maximum and fluorescence intensity) [13]	EC50 ([7]; same irradiation conditions, previously published per Table 2, read-out: EC50 (HeLa)) [nM]
CC[N+](CC)(CC)CCSc1cc2c(cc1SCC[N+](CC)(CC)CC)C1=Nc3c4cc(SCC[N+](CC)(CC)CC)c(SCC[N+](CC)(CC)CC)cc4c4[n]3[Zn][n]3c(c5cc(SCC[N+](CC)(CC)CC)c(SCC[N+](CC)(CC)CC)cc5c3=NC3=NC(=N4)c4cc(SCC[N+](CC)(CC)CC)c(SCC[N+](CC)(CC)CC)cc43)=NC2=N1.[I-].[I-].[I-].[I-].[I-].[I-].[I-].[I-] [C8Zn]	281 600 M^–1cm^–1	704	714	0.29	0.63	–1.59	did not sufficiently suppress aggregation	280 ± 40	540 ± 90	320 ± 48							
CC[N+](CC)(CC)CCSc1ccc(SCC[N+](CC)(CC)CC)c2c1C1=NC2=Nc2c3c(SCC[N+](CC)(CC)CC)ccc(SCC[N+](CC)(CC)CC)c3c3[n]2[Zn][n]2c(c4c(SCC[N+](CC)(CC)CC)ccc(SCC[N+](CC)(CC)CC)c4c2=NC2=NC(=N3)c3c(SCC[N+](CC)(CC)CC)ccc(SCC[N+](CC)(CC)CC)c32)=N1.[I-].[I-].[I-].[I-].[I-].[I-].[I-].[I-] [C9Zn]	134 170 M^–1cm^–1	757	783	0.06	0.64	–1.65	did not sufficiently suppress aggregation	210 ± 10	310 ± 121	220 ± 21							
Cc1cc(Cn2cc[n+](C)c2)c(Oc2c3c(c(C)c(C)[n+]2C)C2=Nc4c5c(Oc6c(Cn7cc[n+](C)c7)cc(C)cc6Cn6cc[n+](C)c6)[n+](C)c(C)c(C)c5c5[n]4[Zn][n]4c(c6c(C)c(C)[n+](C)c(Oc7c(Cn8cc[n+](C)c8)cc(C)cc7Cn7cc[n+](C)c7)c6c4=NC4=NC(=N5)c5c4c(C)c(C)[n+](C)c5Oc4c(Cn5cc[n+](C)c5)cc(C)cc4Cn4cc[n+](C)c4)=NC3=N2)c(Cn2cc[n+](C)c2)c1.[I-].[I-].[I-].[I-].[I-].[I-].[I-].[I-].[I-].[I-].[I-].[I-] [C11Zn]	160 750 M^–1cm^–1	716	726	0.21	0.53	–2.25	full monomerization		3.8 ± 0.2	3.8 ± 0.6	1.41	2.8 ± 0.1					
O=C(O)c1cc(Oc2cc3c(cc2Oc2cc(C(=O)O)cc(C(=O)O)c2)C2=Nc4c5cc(Oc6cc(C(=O)O)cc(C(=O)O)c6)c(Oc6cc(C(=O)O)cc(C(=O)O)c6)cc5c5[n]4[Zn][n]4c(c6cc(Oc7cc(C(=O)O)cc(C(=O)O)c7)c(Oc7cc(C(=O)O)cc(C(=O)O)c7)cc6c4=NC4=NC(=N5)c5cc(Oc6cc(C(=O)O)cc(C(=O)O)c6)c(Oc6cc(C(=O)O)cc(C(=O)O)c6)cc54)=NC3=N2)cc(C(=O)O)c1 [A3Zn(COOH)]													0.19	0.42			
O=C([O-])c1cc(C(=O)[O-])cc(-c2cc3c(cc2-c2cc(C(=O)[O-])cc(C(=O)[O-])c2)C2=Nc4c5cc(-c6cc(C(=O)[O-])cc(C(=O)[O-])c6)c(-c6cc(C(=O)[O-])cc(C(=O)[O-])c6)cc5c5[n]4[Zn][n]4c(c6cc(-c7cc(C(=O)[O-])cc(C(=O)[O-])c7)c(-c7cc(C(=O)[O-])cc(C(=O)[O-])c7)cc6c4=NC4=NC(=N5)c5cc(-c6cc(C(=O)[O-])cc(C(=O)[O-])c6)c(-c6cc(C(=O)[O-])cc(C(=O)[O-])c6)cc54)=NC3=N2)c1.[Na+].[Na+].[Na+].[Na+].[Na+].[Na+].[Na+].[Na+].[Na+].[Na+].[Na+].[Na+].[Na+].[Na+].[Na+].[Na+] [A4Zn]	168 630 M^–1cm^–1	694	708	0.01		–3.32	monomeric in water					5090 ± 1240	0.12	0.45 (0.45) ^b	slight bathochromic shift in the Q-band accompanied by partial quenching of the excited states	negligible	10300
O=C(O)c1cc(C(=O)O)cc(-c2cc3c(cc2-c2cc(C(=O)O)cc(C(=O)O)c2)C2=Nc4c5cc(-c6cc(C(=O)O)cc(C(=O)O)c6)c(-c6cc(C(=O)O)cc(C(=O)O)c6)cc5c5[n]4[Zn][n]4c(c6cc(-c7cc(C(=O)O)cc(C(=O)O)c7)c(-c7cc(C(=O)O)cc(C(=O)O)c7)cc6c4=NC4=NC(=N5)c5cc(-c6cc(C(=O)O)cc(C(=O)O)c6)c(-c6cc(C(=O)O)cc(C(=O)O)c6)cc54)=NC3=N2)c1 [A4Zn(COOH)]													0.12	0.45			
Cc1cc(OCc2cn(CCOCCOCCO)nn2)c(Oc2cc3c(cc2Oc2c(OCc4cn(CCOCCOCCO)nn4)cc(C)cc2OCc2cn(CCOCCOCCO)nn2)C2=Nc4c5ccccc5c5[n]4[Zn][n]4c(c6ccccc6c4=NC3=N2)=NC2=NC(=N5)c3ccccc32)c(OCc2cn(CCOCCOCCO)nn2)c1 [N3Zn]	280 340 M^–1cm^–1	672	681	0.28	0.48	1.90			2200 ± 160	900 ± 200		1500 ± 300					
O=C([O-])c1cc(Oc2cc3c(cc2Oc2cc(C(=O)[O-])cc(C(=O)[O-])c2)C2=Nc4c5cc(Oc6cc(C(=O)[O-])cc(C(=O)[O-])c6)c(Oc6cc(C(=O)[O-])cc(C(=O)[O-])c6)cc5c5[n]4[Zn][n]4c(c6cc(Oc7cc(C(=O)[O-])cc(C(=O)[O-])c7)c(Oc7cc(C(=O)[O-])cc(C(=O)[O-])c7)cc6c4=NC4=NC(=N5)c5cc(Oc6cc(C(=O)[O-])cc(C(=O)[O-])c6)c(Oc6cc(C(=O)[O-])cc(C(=O)[O-])c6)cc54)=NC3=N2)cc(C(=O)[O-])c1.[Na+].[Na+].[Na+].[Na+].[Na+].[Na+].[Na+].[Na+].[Na+].[Na+].[Na+].[Na+].[Na+].[Na+].[Na+].[Na+] [A3Zn]	172 640 M^–1cm^–1	677	688	0.03	0.24	–2.88			5160 ± 1030			3470 ± 670	0.19	0.42	slight bathochromic shift in the Q-band accompanied by partial quenching of the excited states	negligible	
Cc1cc(OCc2cn(CCO[C@@H]3O[C@H](CO)[C@@H](O)[C@H](O)[C@H]3O)nn2)c(Oc2cc3c(cc2Oc2c(OCc4cn(CCO[C@@H]5O[C@H](CO)[C@@H](O)[C@H](O)[C@H]5O)nn4)cc(C)cc2OCc2cn(CCO[C@@H]4O[C@H](CO)[C@@H](O)[C@H](O)[C@H]4O)nn2)C2=Nc4c5ccccc5c5[n]4[Zn][n]4c(c6ccccc6c4=NC3=N2)=NC2=NC(=N5)c3ccccc32)c(OCc2cn(CCO[C@@H]3O[C@H](CO)[C@@H](O)[C@H](O)[C@H]3O)nn2)c1 [N4Zn]	293 750 M^–1cm^–1	672	681	0.29	0.59	–0.65			2070 ± 60	500 ± 100		1200 ± 100					
